# Test results published in patent US20260378560A1, “APPROACHES TO DESIGNING AND PERFORMING COMPRESSED BIOLOGICAL EXPERIMENTS AND SYSTEMS FOR IMPLEMENTING THE SAME” (EXVIVO LABS INC., priority 2023, published 2026).
# Columns and labels:
# [1] = tested on: co-culture of three cancer cell lines; assay: Cell viability (CellTiter Glo) of compressed target pools, co-cultures of three cell lines (Target Compression); format: cell-based
# Procedure: (§1) Total cell viability was measured for each cancer cell line using an Adenosine TriPhosphate (“ATP”) assay, and more specifically an ATP-based luminescence assay (i.e., CellTiter Glo). Each cancer drug was screened at multiple concentrations ranging from one nanomolar (nM) to ten micromolar (UM) in order to generate a dose-response curve and calculate a drug response score (“DRS”) for each cancer cell line. The DRS was calculated as a continuous function of multiple parameters of the non-linear dose-response curve, including the slope at the half-maximal effective concentration (also called “EC50”) and the top and bottom asymptotes of the dose-response curve. […] After total cell viability was measured and DRS was calculated, the DRS of each cancer cell line in the pool was deconvolved for each cancer drug.
# (§2) Each pool represented a co-culture of three cell lines (“Target Compression”).
# JURKAT [2] = assay: ATP-based luminescence cell viability (CellTiter Glo), drug response score, JURKAT; conditions: Target compression
# Text: (§3) As part of a screen, a drug could be screened at different concentrations ranging from a lowest concentration to a highest concentration. In such a scenario, multiple data structures may be obtained by the screening platform 210. […] With these multiple data structures, the analysis module 218 can generate a dose-response curve that describes the magnitude of the response of the biological target, as a function of exposure to different concentrations of the drug. Further, the analysis module 218 can calculate a metric that is indicative of the response of the biological target. In the event that the biological target is one of multiple biological targets that are introduced to the pools of drugs, the metric can be used by the screening platform 210 to better understand the relative magnitude of responses. One example of a metric is drug-response score (“DRS”). DRS can be calculated as a continuous function of multiple parameters of the non-linear dose-response curve, including the slope at the half-maximal effective concentration (also called “EC50”) and the top and bottom asymptotes of the dose-response curve. DRS can be calculated as follows: […]
# (§4) where y is a continuous function of the variable dose x, a is the maximal response (i.e., the top asymptote of the curve), b is the slope of the curve, c is the IC50 (i.e., half-maximal inhibitory concentration), and d is the minimal response (i.e., the bottom asymptote of the curve). Other examples of metrics include those output by sigmoidal and Hill slide functions that, like DRS, incorporate multiple aspects of the dose-response curve into a continuous function.
# as §1
# (§5) DRS for these anchor cell lines are bolded and italicized. Anchors can be identified based on frequency of the cell lines in pools with high DRS versus low DRS. At a high level, an anchor is predicted to be the cell line with the lowest individual DRS. In order to deconvolute individual cell line DRS values from pool DRS values, the anchor can start with an assumed DRS value of zero. Each pool can then be expressed as a polynomial of variables (cell lines in the pool) and constants (DRS value of the pool). The DRS value of each cell line can then be solved for using the anchor value and overlapping polynomial expressions. When multiple values are calculated for the final target solved from the polynomials, then the anchor has a non-zero value that can be determined based on the difference in the calculated value of the final target.
# as §2
# JURKAT [3] = assay: as above; conditions: screened individually (Compress: None)
# MOLT-4 = assay: ATP-based luminescence cell viability (CellTiter Glo), drug response score, MOLT-4
# SUP-B15 = assay: ATP-based luminescence cell viability (CellTiter Glo), drug response score, SUP-B15; design: scale not given here; conditions: SUP-B15, screened individually (Compress: None)
# REH = assay: ATP-based luminescence cell viability (CellTiter Glo), drug response score, REH; design: scale not given here; conditions: for DRS from deconvolution: Sample compression, 5 Pick 3 pools; for drug response score (DRS): screened individually (Compress: None)
# CCRF-HSB2 = assay: ATP-based luminescence cell viability (CellTiter Glo), drug response score, CCRF-HSB2; conditions: CCRF-HSB2, screened individually (Compress: None)
# [4] = tested on: library of cancer cell lines; assay: Hit profile of cancer drugs across library of cancer cell lines (cell viability); format: cell-based; conditions: across cancer cell lines screened individually
# Procedure: Total cell viability was measured for each cancer cell line using an Adenosine TriPhosphate (“ATP”) assay, and more specifically an ATP-based luminescence assay (i.e., CellTiter Glo). Each cancer drug was screened at multiple concentrations ranging from one nanomolar (nM) to ten micromolar (UM) in order to generate a dose-response curve and calculate a drug response score (“DRS”) for each cancer cell line. The DRS was calculated as a continuous function of multiple parameters of the non-linear dose-response curve, including the slope at the half-maximal effective concentration (also called “EC50”) and the top and bottom asymptotes of the dose-response curve. […]
# Table I includes several examples of cancer drugs and their DRSs across each cancer cell line in the aforementioned experiment.
# [5] = tested on: pooled samples of three cancer cell lines; assay: Cell viability (CellTiter Glo) of compressed pooled samples of three individually cultured cell lines (Sample Compression); format: cell-based
# Procedure: as §1
# A benefit of the compression methodology is the ability to compress members of a library into pools for co-culture screens or compress individual cell cultures into pooled samples for measurement. For example, leukemia cell lines can interact in co-cultures through their immune receptors, which may result in cell activation, cytokine production, and other effects that may impact drug sensitivity and resistance. […] Instead of creating compressed target cells in pooled co-cultures, compression was instead used to enable individual cultures of each cell line, with pooled measurements to reduce reagents and instrument time. With individual cultures and sample compression, it was possible to accurately deconvolute DRS for each drug on each cell line, as shown in Table IV.
# NALM-6 = assay: ATP-based luminescence cell viability (CellTiter Glo), drug response score, NALM-6; conditions: for DRS from deconvolution: NALM-6, Target compression, 7 Pick 3 pools; for drug response score (DRS): NALM-6, screened individually (Compress: None)
# Text: as §3, §4, §1, §5, §2
# [6] = 5 Pick 3, Pool 1 (REH, SUP-B15, CCRF-CFM)
# [7] = 5 Pick 3, Pool 2 (SUP-B15, CCRF-HSB2, MOLT-4)
# [8] = 5 Pick 3, Pool 3 (SUP-B15, CCRF-CFM, CCRF-HSB2)
# [9] = 5 Pick 3, Pool 4 (REH, CCRF-CFM, MOLT-4)
# [10] = 5 Pick 3, Pool 5 (REH, CCRF-HSB2, MOLT-4)
# [11] = 6 Pick 3, Pool 1 (REH, CCRF-CFM, MOLT-4)
# [12] = 6 Pick 3, Pool 2 (REH, CCRF-HSB2, MOLT-4)
# [13] = 6 Pick 3, Pool 3 (REH, CCRF-CFM, JURKAT)
# [14] = 6 Pick 3, Pool 4 (SUP-B15, CCRF-HSB2, JURKAT)
# [15] = 6 Pick 3, Pool 5 (SUP-B15, CCRF-CFM, JURKAT)
# [16] = 6 Pick 3, Pool 6 (SUP-B15, CCRF-HSB2, MOLT-4)
# [17] = 7 Pick 3, Pool 1 (SUP-B15, CCRF-CFM, JURKAT)
# [18] = 7 Pick 3, Pool 2 (SUP-B15, CCRF-HSB2, NALM-6)
# [19] = 7 Pick 3, Pool 3 (SUP-B15, CCRF-CFM, NALM-6)
# [20] = 7 Pick 3, Pool 7 (CCRF-CFM, CCRF-HSB2, MOLT-4)
# [21] = MOLT-4, Sample compression, 5 Pick 3 pools
# [22] = MOLT-4, Target compression, 5 Pick 3 pools
# [23] = MOLT-4, Target compression, 6 Pick 3 pools
# [24] = MOLT-4, Target compression, 7 Pick 3 pools
Structure (SMILES),"DRS of pool [1, 6]","DRS of pool [1, 7]","DRS of pool [1, 8]","DRS of pool [1, 9]","DRS of pool [1, 10]","DRS of pool [1, 11]","DRS of pool [1, 12]","DRS of pool [1, 13]","DRS of pool [1, 14]","DRS of pool [1, 15]","DRS of pool [1, 16]","DRS of pool [1, 17]","DRS of pool [1, 18]","DRS of pool [1, 19]","DRS of pool [1, 20]",DRS from deconvolution (JURKAT [2]; 6 Pick 3 pools),DRS from deconvolution (JURKAT [2]; 7 Pick 3 pools),drug response score (DRS) (JURKAT [3]),DRS from deconvolution (MOLT-4; [21]),DRS from deconvolution (MOLT-4; [22]),further results
Cc1[nH]c2ccccc2c1CCNCc1ccc(/C=C/C(=O)NO)cc1 [Panobinostat],17.85,18.46,20.02,15.81,16.48,15.05,15.25,14.41,18.23,17.93,18.22,17.85,18.41,18.84,16.92,14.37,13.23,13.20,14.56,15.32,"DRS from deconvolution (MOLT-4; [23]): 15.84; DRS from deconvolution (MOLT-4; [24]): 14.94; drug response score (DRS) (SUP-B15): 22.40; DRS from deconvolution (REH): 12.17; drug response score (DRS) (REH): 12.60; drug response score (DRS) (CCRF-HSB2): 17.40; Hits (hit profile) [4]: All; DRS of pool [5, 6]: 18.56; DRS of pool [5, 7]: 19.17; DRS of pool [5, 8]: 20.34; DRS of pool [5, 9]: 14.93; DRS of pool [5, 10]: 15.87; DRS from deconvolution (NALM-6): 15.85; drug response score (DRS) (NALM-6): 16.30"
CC1(C)CCC(CN2CCN(c3ccc(C(=O)NS(=O)(=O)c4ccc(NCC5CCOCC5)c([N+](=O)[O-])c4)c(Oc4cnc5[nH]ccc5c4)c3)CC2)=C(c2ccc(Cl)cc2)C1 [Venetoclax],14.50,13.53,13.46,2.70,2.43,2.60,2.26,1.57,13.22,12.95,13.01,12.97,14.37,15.70,1.35,0.00,1.88,0.00,1.26,0.87,"DRS of pool ([1]; 7 Pick 3, Pool 4 (REH, CCRF-HSB2, JURKAT)): 1.25; DRS of pool ([1]; 7 Pick 3, Pool 5 (REH, MOLT-4, NALM-6)): 4.62; DRS of pool ([1]; 7 Pick 3, Pool 6 (REH, MOLT-4, JURKAT)): 2.25; DRS from deconvolution (MOLT-4; [23]): 2.79; DRS from deconvolution (MOLT-4; [24]): 2.98; drug response score (DRS) (SUP-B15): 37.40; DRS from deconvolution (REH): 1.15; drug response score (DRS) (REH): 3.80; drug response score (DRS) (CCRF-HSB2): 0.00; Hits (hit profile) [4]: One; DRS of pool [5, 6]: 13.99; DRS of pool [5, 7]: 13.60; DRS of pool [5, 8]: 12.57; DRS of pool [5, 9]: 2.91; DRS of pool [5, 10]: 2.41; DRS from deconvolution (NALM-6): 9.54; drug response score (DRS) (NALM-6): 7.30"
